Source: BigSolDB 2.1

CCOc1ccc(OCC)cc1
solubility (mole fraction)
Conditions	278.15 K	283.15 K	288.15 K	293.15 K	298.15 K	303.15 K	308.15 K	313.15 K	318.15 K
in 2-butanone	0.077	0.0958	0.113	0.136	0.169	0.204	0.257	0.31	0.406
in acetone	0.0531	0.0679	0.0839	0.0969	0.12	0.158	0.204	0.263	0.341
in acetonitrile	0.0204	0.0265	0.0372	0.0498	0.0672	0.102	0.141	0.251	0.473
in dimethyl carbonate	0.0243	0.0339	0.0537	0.072	0.0994	0.145	0.193	0.25	0.342
in ethanol	0.00307	0.00646	0.00901	0.0119	0.0155	0.0189	0.0234	0.031	0.043
in ethyl acetate	0.0775	0.0933	0.113	0.145	0.179	0.218	0.264	0.313	0.372
in ethyl lactate	0.0196	0.0305	0.0458	0.0578	0.0738	0.0875	0.109	0.148	0.213
in isobutyl acetate	0.0332	0.045	0.0655	0.0872	0.112	0.145	0.181	0.225	0.281
in methanol	0.00207	0.00338	0.00473	0.00666	0.00924	0.0115	0.0158	0.0212	0.0309
in methyl acetate	0.0544	0.0685	0.0905	0.112	0.145	0.193	0.24	0.29	0.347
in n-butyl acetate	0.0821	0.11	0.142	0.172	0.213	0.254	0.293	0.347	0.432
in n-propyl acetate	0.0586	0.0753	0.0981	0.133	0.165	0.202	0.255	0.313	0.383
